Results reported in ChEMBL document CHEMBL5500383, “Recent advances and future directions on small molecule VEGFR inhibitors in oncological conditions” (Eur J Med Chem, 2024).
Values belong to the compound of their own block, whether it stands above or below them.

What was measured:
[1] = system: HepG2; assay: Cytotoxicity against human HepG2 cells assessed as reduction in cell viability incubated for 72 hrs by MTT assay; assay type: functional, cell-based; details: HepG2, 72 h
[2] = system: HCT-116; assay: Cytotoxicity against human HCT-116 cells assessed as reduction in cell viability incubated for 72 hrs by MTT assay; assay type: functional, cell-based; details: HCT-116, 72 h
[3] = system: MCF7; assay: Cytotoxicity against human MCF7 cells assessed as reduction in cell viability incubated for 72 hrs by MTT assay; assay type: functional, cell-based; details: MCF7, 72 h
[4] = system: MCF7; assay: Antiproliferative activity against human MCF7 cells assessed as reduction in cell viability; assay type: functional, cell-based
[5] = system: MHCC97H; assay: Antiproliferative activity against human MHCC97H cells assessed as reduction in cell viability incubated for 48 hrs by CCK-8 assay; assay type: functional, cell-based
[6] = Cytotoxicity against human HUVEC cells assessed as reduction in cell viability by CCK-8 assay; assay type: toxicity, cell-based
[7] = target: Hepatocyte growth factor receptor (Homo sapiens, UniProt P08581); assay: Inhibition of c-Met (unknown origin)
Chain of Hepatocyte growth factor receptor (P08581 whole entry): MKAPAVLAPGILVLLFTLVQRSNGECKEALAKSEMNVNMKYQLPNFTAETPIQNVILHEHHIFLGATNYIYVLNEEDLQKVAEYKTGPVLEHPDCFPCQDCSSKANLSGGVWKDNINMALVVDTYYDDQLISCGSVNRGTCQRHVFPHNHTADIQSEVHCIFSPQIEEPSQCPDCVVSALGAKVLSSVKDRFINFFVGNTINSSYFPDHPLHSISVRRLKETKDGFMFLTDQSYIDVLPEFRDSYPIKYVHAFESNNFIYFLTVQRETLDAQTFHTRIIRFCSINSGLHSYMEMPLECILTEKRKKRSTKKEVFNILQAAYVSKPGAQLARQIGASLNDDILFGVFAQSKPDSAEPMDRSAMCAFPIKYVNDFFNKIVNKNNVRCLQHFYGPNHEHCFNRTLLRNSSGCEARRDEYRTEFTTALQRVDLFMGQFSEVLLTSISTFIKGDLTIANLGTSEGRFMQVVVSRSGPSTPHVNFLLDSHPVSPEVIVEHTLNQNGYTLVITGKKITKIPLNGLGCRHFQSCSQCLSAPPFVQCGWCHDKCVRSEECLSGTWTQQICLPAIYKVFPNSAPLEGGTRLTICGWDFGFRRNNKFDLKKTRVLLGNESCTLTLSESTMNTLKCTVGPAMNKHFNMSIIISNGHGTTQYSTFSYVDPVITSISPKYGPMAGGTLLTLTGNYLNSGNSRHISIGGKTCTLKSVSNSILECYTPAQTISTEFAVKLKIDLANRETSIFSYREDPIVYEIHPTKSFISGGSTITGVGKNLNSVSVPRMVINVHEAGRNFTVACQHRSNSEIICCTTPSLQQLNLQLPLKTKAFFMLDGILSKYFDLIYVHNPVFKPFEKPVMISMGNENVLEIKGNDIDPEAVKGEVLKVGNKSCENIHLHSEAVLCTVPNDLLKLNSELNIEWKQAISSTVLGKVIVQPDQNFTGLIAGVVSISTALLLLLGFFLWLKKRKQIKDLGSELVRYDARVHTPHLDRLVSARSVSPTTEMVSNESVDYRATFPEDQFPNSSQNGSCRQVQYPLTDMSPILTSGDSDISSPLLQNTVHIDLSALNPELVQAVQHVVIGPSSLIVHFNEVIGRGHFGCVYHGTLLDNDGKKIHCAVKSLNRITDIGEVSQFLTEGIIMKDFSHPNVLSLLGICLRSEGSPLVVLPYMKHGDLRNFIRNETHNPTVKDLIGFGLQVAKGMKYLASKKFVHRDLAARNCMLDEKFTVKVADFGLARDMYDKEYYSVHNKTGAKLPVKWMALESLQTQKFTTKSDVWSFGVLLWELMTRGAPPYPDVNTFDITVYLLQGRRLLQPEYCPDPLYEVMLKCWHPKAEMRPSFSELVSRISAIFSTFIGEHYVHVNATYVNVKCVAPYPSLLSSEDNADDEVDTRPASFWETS

[8] = target: T1, Vascular endothelial growth factor receptor 2 (Homo sapiens, UniProt P35968); assay: Inhibition of VEGFR2 (unknown origin)
T1 sequence (P35968 whole entry): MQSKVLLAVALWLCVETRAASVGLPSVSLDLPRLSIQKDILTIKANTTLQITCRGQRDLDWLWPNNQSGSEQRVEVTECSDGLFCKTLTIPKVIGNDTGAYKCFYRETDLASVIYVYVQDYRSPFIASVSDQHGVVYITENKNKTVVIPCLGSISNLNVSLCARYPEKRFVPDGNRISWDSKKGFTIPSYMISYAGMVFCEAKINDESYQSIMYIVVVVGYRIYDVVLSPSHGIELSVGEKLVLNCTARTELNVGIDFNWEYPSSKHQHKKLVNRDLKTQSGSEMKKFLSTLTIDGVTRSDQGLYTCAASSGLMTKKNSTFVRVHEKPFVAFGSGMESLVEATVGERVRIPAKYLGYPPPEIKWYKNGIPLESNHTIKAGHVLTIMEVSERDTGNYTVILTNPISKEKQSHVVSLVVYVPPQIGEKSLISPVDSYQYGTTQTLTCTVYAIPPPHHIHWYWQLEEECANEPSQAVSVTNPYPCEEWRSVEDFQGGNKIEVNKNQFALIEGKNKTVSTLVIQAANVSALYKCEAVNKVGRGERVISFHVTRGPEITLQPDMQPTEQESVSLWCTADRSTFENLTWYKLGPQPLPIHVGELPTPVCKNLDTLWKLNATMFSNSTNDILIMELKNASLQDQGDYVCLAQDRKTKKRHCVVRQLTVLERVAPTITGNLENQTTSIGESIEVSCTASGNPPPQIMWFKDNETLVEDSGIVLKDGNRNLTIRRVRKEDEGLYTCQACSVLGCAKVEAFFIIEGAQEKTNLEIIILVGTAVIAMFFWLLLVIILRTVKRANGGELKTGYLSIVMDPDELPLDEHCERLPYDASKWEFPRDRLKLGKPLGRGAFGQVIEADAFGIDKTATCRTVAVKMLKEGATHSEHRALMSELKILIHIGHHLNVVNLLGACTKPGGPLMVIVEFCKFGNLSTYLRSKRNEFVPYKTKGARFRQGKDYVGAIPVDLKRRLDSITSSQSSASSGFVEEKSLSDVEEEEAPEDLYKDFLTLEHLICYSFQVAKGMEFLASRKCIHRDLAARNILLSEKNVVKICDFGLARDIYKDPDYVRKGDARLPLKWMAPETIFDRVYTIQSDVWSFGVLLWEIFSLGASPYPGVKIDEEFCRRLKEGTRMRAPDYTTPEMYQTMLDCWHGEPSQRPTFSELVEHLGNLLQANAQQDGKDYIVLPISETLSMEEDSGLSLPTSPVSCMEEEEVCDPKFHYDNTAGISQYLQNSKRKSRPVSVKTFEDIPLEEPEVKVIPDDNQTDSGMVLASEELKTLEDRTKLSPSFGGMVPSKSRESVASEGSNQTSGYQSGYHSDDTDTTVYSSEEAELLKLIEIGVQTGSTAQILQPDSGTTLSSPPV

[9] = system: HCT-116; assay: Antiproliferative activity against human HCT-116 cells assessed as reduction in cell growth incubated for 24 hrs by MTT assay; assay type: functional, cell-based; details: HCT-116, 24 h
[10] = system: MCF7; assay: Antiproliferative activity against human MCF7 cells assessed as reduction in cell growth incubated for 24 hrs by MTT assay; assay type: functional, cell-based; details: MCF7, 24 h
[11] = system: HepG2; assay: Antiproliferative activity against human HepG2 cells assessed as reduction in cell growth incubated for 24 hrs by MTT assay; assay type: functional, cell-based; details: HepG2, 24 h
[12] = target: T1, Vascular endothelial growth factor receptor 2; assay: Inhibition of human VEGFR-2 by ELISA method
[13] = system: MCF7; assay: Cytotoxicity against human MCF7 cells assessed as reduction in cell viability incubated for 48 hrs by MTT assay; assay type: functional, cell-based; details: MCF7, 48 h
[14] = target: T1, Vascular endothelial growth factor receptor 2; assay: Inhibition of VEGFR2 (unknown origin) using Poly-(Glu,Tyr 4:1) peptide as substrate incubated for 1 hr by ELISA method
[15] = system: HCT-116; assay: Cytotoxicity against human HCT-116 cells assessed as reduction in cell growth incubated for 48 hrs by MTT assay; assay type: functional, cell-based; details: HCT-116, 48 h
[16] = system: HepG2; assay: Cytotoxicity against human HepG2 cells assessed as reduction in cell growth incubated for 48 hrs by MTT assay; assay type: functional, cell-based; details: HepG2, 48 h
[17] = system: U-87 MG; assay: Antiproliferative activity against human U87 cells assessed as inhibition of cell viability incubated for 72 hrs by MTT assay; assay type: functional, cell-based, U-87MG ATCC
[18] = system: EA.hy 926; assay: Antiproliferative activity against human EA.hy 926 cells assessed as reduction in cell viability incubated for 48 hrs by MTT assay; assay type: functional, cell-based; details: EA.hy 926, 48 h
[19] = target: RAC-alpha serine/threonine-protein kinase (Homo sapiens, UniProt P31749); assay: Inhibition of AKT1 (unknown origin)
Chain of RAC-alpha serine/threonine-protein kinase (P31749 whole entry): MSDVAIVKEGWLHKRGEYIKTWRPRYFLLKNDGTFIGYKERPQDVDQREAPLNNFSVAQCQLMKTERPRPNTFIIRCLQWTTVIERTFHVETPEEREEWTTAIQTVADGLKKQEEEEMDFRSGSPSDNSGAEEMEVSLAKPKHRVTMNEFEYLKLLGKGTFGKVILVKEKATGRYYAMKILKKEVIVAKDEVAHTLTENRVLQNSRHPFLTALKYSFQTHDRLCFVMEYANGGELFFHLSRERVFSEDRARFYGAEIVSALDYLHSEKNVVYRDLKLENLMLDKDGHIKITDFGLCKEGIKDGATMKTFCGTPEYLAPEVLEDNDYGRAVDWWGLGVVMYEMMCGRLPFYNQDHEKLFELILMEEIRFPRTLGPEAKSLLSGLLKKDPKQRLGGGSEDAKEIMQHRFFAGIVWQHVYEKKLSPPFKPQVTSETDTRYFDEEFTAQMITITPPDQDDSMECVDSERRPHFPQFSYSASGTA

[20] = system: HepG2; assay: Antiproliferative activity against human HepG2 cells assessed as cell growth inhibition incubated for 24 hrs by MTT assay; assay type: functional, cell-based; details: HepG2, 24 h
[21] = target: T1, Vascular endothelial growth factor receptor 2; assay: Inhibition of GST-tagged human recombinant VEGFR2
[22] = system: WI-38; assay: (§1) Antiproliferative activity against human WI-38 cells assessed as cell growth inhibition incubated for 24 hrs by MTT assay; assay type: toxicity, cell-based; details: wi-38
[23] = system: PC-3; assay: Antiproliferative activity against human PC-3 cells assessed as cell growth inhibition incubated for 24 hrs by MTT assay; assay type: functional, cell-based; details: PC-3, 24 h
[24] = system: HCT-116; assay: Antiproliferative activity against human HCT-116 cells assessed as inhibition of cell growth incubated for 24 hrs by MTT assay; assay type: functional, cell-based; details: HCT-116, 24 h
[25] = system: MCF7; assay: Antiproliferative activity against human MCF7 cells assessed as inhibition of cell growth incubated for 24 hrs by MTT assay; assay type: functional, cell-based; details: MCF7, 24 h
[26] = system: HepG2; assay: Antiproliferative activity against human HepG2 cells assessed as inhibition of cell growth incubated for 24 hrs by MTT assay; assay type: functional, cell-based; details: HepG2, 24 h
[27] = system: MCF7; assay: Cytotoxicity against human MCF7 cells assessed as reduction in cell viability; assay type: functional, cell-based
[28] = as §1; assay type: toxicity, cell-based; details: human, WI-38 cells
[29] = Cmax in human at 140 mg; assay type: ADME
[30] = Half life in human at 140 mg
[31] = Tmax in human at 140 mg; assay type: ADME

- IC50 [4]: 8.84 µM
Structure (SMILES): COCCOCCOCCOCCOCCOC(=O)c1cc(C(=O)OCCOCCOCCOCCOCCOC)cc(-n2cc(Cn3ncc4ccccc4c3=O)nn2)c1

- IC50 [19]: 6.96 µM
- IC50 [20]: 3.11 µM
- IC50 [21]: 0.126 µM
- IC50 [23]: 2.15 µM
Structure (SMILES): CN1CCC2=C1C1C(=O)NC(c3ccccc3)=NC1S2 (configuration not stated)
- IC50 [22]: 12.5 µM

- IC50 [9]: 3.74 µM
- IC50 [12]: 0.34 µM
- IC50 [24]: 6.77 µM
- IC50 [25]: 5 µM
- IC50 [26]: 3.74 µM
Structure (SMILES): C/C(=N\NC(=O)c1ccccc1O)c1ccc(NC(=O)CSc2nc3ccccc3c(=O)n2-c2ccccc2)cc1

- IC50 [20]: 3.02 µM
- IC50 [23]: 3.12 µM
Structure (SMILES): CCOC(=O)c1c(NC(=S)Nc2cc(C)ccc2Cl)sc2c1N(C)CC2
- IC50 at 24 h [28]: 35.3 µM

Further lines, the compound ahead of its results:

Structure (SMILES): CCOC(=O)c1ccc(NC(=O)c2ccc(NC(=O)CN3C(=O)S/C(=C\c4ccccc4)C3=O)cc2)cc1
- IC50 [1]: 11.2 µM
- IC50 [2]: 8.99 µM
- IC50 [3]: 7.1 µM

Structure (SMILES): COCCOc1cc2ncnc(Nc3ccc(NC(=O)CC(=O)Nc4ccc(F)cc4)cc3F)c2c2c1OCCO2
- IC50 [5]: 0.0157 µM
- IC50 [6]: 0.0008 µM
- IC50 [7]: 0.0058 µM
- IC50 [8]: 0.0048 µM

Structure (SMILES): CCn1c(SCC(=O)Nc2ccc(/C(C)=N/O)cc2)nc2ccccc2c1=O
- IC50 [9]: 4.58 µM
- IC50 [10]: 4.83 µM
- IC50 [11]: 3.97 µM
- IC50 [12]: 2.5 µM

Structure (SMILES): Cc1cc(C)nc(NS(=O)(=O)c2ccc(/N=N/c3ccc(C4=NCC(=O)N(C)c5ccc(Cl)cc54)cc3)cc2)n1
- IC50 [13]: 6.99 µM
- IC50 [14]: 0.0001 µM
- IC50 [15]: 7.77 µM
- IC50 [16]: 8.98 µM

Structure (SMILES): O=C(Nc1ccc(Oc2ccnc(C(=O)NCCCCNC(=O)C3CC4C=CC3C4)c2)cc1)Nc1ccc(Cl)c(C(F)(F)F)c1 (configuration not stated)
- IC50 [17]: 63.6 µM
- IC50 [8]: 0.23 µM
- IC50 [18]: 0.047 µM

Structure (SMILES): Cc1ccc2oc(CCCC(=O)Nc3ccc(S(=O)(=O)NC(=O)NC4CCCCC4)cc3)nc2c1
- IC50 [8]: 0.07 µM
- IC50 [27]: 5.5 µM

Structure (SMILES): COc1cc2nccc(Oc3ccc(NC(=O)C4(C(=O)Nc5ccc(F)cc5)CC4)cc3)c2cc1OC [CABOZANTINIB]
- Cmax [29]: 554 ng/mL
- half-life [30]: 112 h
- Tmax [31]: 4 h
